Test results reported in publication PMC10133546, “Simultaneous determination of multiple components in rat plasma by UHPLC-sMRM for pharmacokinetic studies after oral administration of Qingjin Yiqi Granules” (Frontiers in Pharmacology, 2023).

Experiments:
[1] = Stability of the working solution (4°C for 1 month); type: physicochemical
[2] = Stability of analytes in rat plasma (auto-sampler, freeze-thaw, room temperature, long-term); details: for Autosampler for 24 h Accuracy (%): autosampler 24 h; for Room temperature for 24 h Accuracy (%): room temperature 24 h; for Freeze thaw cycles Accuracy (%): three freeze-thaw cycles
Method: The stability of analytes in plasma was evaluated by analyzing 4 QC samples (n = 6). The stability was included auto-sampler stability (keeping the sample in auto-sampler for 24 h), three times of freeze-thaw cycles stability (freezing cycle at −80°C, thawing cycle at room temperature), room temperature stability (storing samples at room temperature for 24 h), long-term stability (storing samples at −80°C for 1 month). […] Accompanying curve was established when testing the sample, calculate and compare the ratio of the actual measured concentration to the theoretical concentration, expressed in accuracy and RSD.

| Structure (SMILES) | Working solution Accuracy (%) ([1]; 12.5 ng/mL) | Working solution Accuracy (%) ([1]; 500 ng/mL) | Autosampler for 24 h Accuracy (%) ([2]; 12.5 ng/mL) | Room temperature for 24 h Accuracy (%) ([2]; 12.5 ng/mL) | Freeze thaw cycles Accuracy (%) ([2]; 12.5 ng/mL) | −80°C for 1month Accuracy (%) ([2]; 12.5 ng/mL, −80°C 1 month) | Autosampler for 24 h Accuracy (%) ([2]; 50 ng/mL) | Autosampler for 24 h Accuracy (%) ([2]; 100 ng/mL) | Room temperature for 24 h Accuracy (%) ([2]; 100 ng/mL) | Freeze thaw cycles Accuracy (%) ([2]; 100 ng/mL) | −80°C for 1month Accuracy (%) ([2]; 100 ng/mL, −80°C 1 month) | Autosampler for 24 h Accuracy (%) ([2]; 500 ng/mL) | Room temperature for 24 h Accuracy (%) ([2]; 500 ng/mL) | Freeze thaw cycles Accuracy (%) ([2]; 500 ng/mL) | −80°C for 1month Accuracy (%) ([2]; 500 ng/mL, −80°C 1 month) | Working solution Accuracy (%) ([1]; 100 ng/mL) | Autosampler for 24 h Accuracy (%) ([2]; 1.56 ng/mL) | Room temperature for 24 h Accuracy (%) ([2]; 1.56 ng/mL) | Freeze thaw cycles Accuracy (%) ([2]; 1.56 ng/mL) | −80°C for 1month Accuracy (%) ([2]; 1.56 ng/mL, −80°C 1 month) | other results |
| --- | --- | --- | --- | --- | --- | --- | --- | --- | --- | --- | --- | --- | --- | --- | --- | --- | --- | --- | --- | --- | --- |
| C[C@@]12C[C@@]3(O)O[C@@H](O1)[C@]1(COC(=O)c4ccccc4)[C@H]3C[C@@]12O[C@@H]1O[C@H](CO)[C@@H](O)[C@H](O)[C@H]1O [paeoniflorin] | 106.0 | 93.2 | 86.8 | 106.0 | 97.6 | 97.6 | 97.6 | 111.0 | 86.8 | 93.4 | 95.2 | 92.0 | 92.2 | 93.1 | 95.3 | – | – | – | – | – | Room temperature for 24 h Accuracy (%) ([2]; 50 ng/mL): 106.0%; Freeze thaw cycles Accuracy (%) ([2]; 50 ng/mL): 94.1%; −80°C for 1month Accuracy (%) ([2]; 50 ng/mL, −80°C 1 month): 96.4% |
| CC(=O)O[C@H]1[C@H](O[C@H]2CC[C@]34C[C@]35CC[C@]3(C)[C@@H]([C@@]6(C)CC[C@@H](C(C)(C)O)O6)[C@@H](O)C[C@@]3(C)[C@@H]5C[C@H](O[C@@H]3O[C@H](CO)[C@@H](O)[C@H](O)[C@H]3O)[C@H]4C2(C)C)OC[C@@H](O)[C@@H]1O [astragaloside II(IS)] | – | – | – | – | – | – | – | – | – | – | – | – | – | – | – | – | – | – | – | – | Working solution Accuracy (%) ([1]; concentration 100 ng/mL): 96.7%; Autosampler for 24 h Accuracy (%) ([2]; concentration 100 ng/mL): 105.0%; −80°C for 1month Accuracy (%) ([2]; −80°C for 1 month, concentration 100 ng/mL): 115.0% |
| CC(C)=CCC[C@](C)(O)[C@H]1CC[C@]2(C)[C@@H]1[C@H](O)C[C@@H]1[C@@]3(C)CC[C@H](O)C(C)(C)[C@@H]3[C@@H](O[C@@H]3O[C@H](CO)[C@@H](O)[C@H](O)[C@H]3O[C@@H]3O[C@H](CO)[C@@H](O)[C@H](O)[C@H]3O)C[C@]12C [ginsenoside Rf] | 91.9 | 102.0 | 112.0 | 96.1 | 97.2 | 97.1 | 98.9 | 88.2 | 96.8 | 89.7 | – | – | 113.0 | – | 112.0 | 110.0 | – | – | – | – | Working solution Accuracy (%) ([1]; 50 ng/mL): 94.9%; Freeze thaw cycles Accuracy (%) ([2]; 50 ng/mL): 88.0%; −80°C for 1month Accuracy (%) ([2]; 50 ng/mL, −80°C 1 month): 89.6% |
| O=c1c(O[C@@H]2O[C@H](CO)[C@H](O)[C@H](O)[C@H]2O)c(-c2ccc(O)c(O)c2)oc2cc(O)cc(O)c12 [hyperoside] | 92.1 | 95.0 | 101.0 | – | 98.4 | 100.0 | – | 90.5 | 95.4 | 93.5 | 88.8 | 95.8 | 99.1 | 95.3 | – | 91.2 | 111.0 | 91.6 | 97.6 | 106.0 | – |
| C[C@@H]1O[C@@H](Oc2c(-c3ccc(O)c(O)c3)oc3cc(O)cc(O)c3c2=O)[C@H](O)[C@H](O)[C@H]1O [quercitrin] | – | 99.1 | 94.7 | 87.1 | 90.0 | 97.1 | – | 98.3 | 99.6 | 100.0 | 95.6 | 108.0 | 98.0 | 89.3 | 96.0 | 90.4 | 95.2 | 85.2 | 86.2 | 86.7 | Working solution Accuracy (%) ([1]; 1.56 ng/mL): 92.6% |
| O=c1cc(-c2ccccc2)oc2cc(O)c(O)c(O)c12 [baicalein] | – | – | 97.0 | 91.4 | 97.4 | 99.7 | 92.3 | 92.4 | – | 98.2 | 95.5 | 93.2 | 91.0 | 94.0 | 104.0 | – | – | – | – | – | Room temperature for 24 h Accuracy (%) ([2]; 50 ng/mL): 85.5%; −80°C for 1month Accuracy (%) ([2]; 50 ng/mL, −80°C 1 month): 90.6% |
| O.Oc1cc(O)c2c(c1)O[C@H](c1ccc(O)c(O)c1)[C@@H](O)C2 [catechin] | 91.6 | 100.0 | – | – | – | – | – | – | – | – | – | – | – | – | – | 97.4 | – | – | – | – | Working solution Accuracy (%) ([1]; 50 ng/mL): 106.0% |
| O=C(/C=C/c1ccc(O[C@@H]2O[C@H](CO)[C@@H](O)[C@H](O)[C@H]2O)cc1)c1ccc(O)cc1O [isoliquiritin] | 110.0 | 93.3 | 108.0 | 87.5 | 90.9 | – | – | 107.0 | 96.6 | 94.5 | 106.0 | 96.3 | 96.7 | 91.6 | 95.0 | – | 99.3 | 88.9 | 95.5 | 83.8 | Working solution Accuracy (%) ([1]; 1.56 ng/mL): 106.0% |
| C[C@]1(OC(=O)/C=C/c2ccccc2)C[C@@H](O)[C@]2(O)C=CO[C@@H](O[C@@H]3O[C@H](CO)[C@@H](O)[C@H](O)[C@H]3O)[C@@H]21 [harpagoside] | 105.0 | 88.5 | 101.0 | 108.0 | 98.1 | – | – | 93.8 | 100.0 | 93.2 | – | – | 95.7 | 95.1 | – | – | 105.0 | 95.0 | 91.5 | 86.6 | Working solution Accuracy (%) ([1]; 1.56 ng/mL): 83.8% |
| COc1ccc(-c2oc3c(CC=C(C)C)c(O[C@@H]4O[C@H](CO)[C@@H](O)[C@H](O)[C@H]4O)cc(O)c3c(=O)c2O[C@@H]2O[C@@H](C)[C@H](O)[C@@H](O)[C@H]2O)cc1 [icariin (IS)] | – | – | – | – | – | – | – | – | – | – | – | – | – | – | – | – | – | – | – | – | Working solution Accuracy (%) ([1]; concentration 100 ng/mL): 94.8% |
